From patent publication US7365082B2, “N-(substituted arylmethyl)-4-(disubstituted methyl)piperidines and piperazines” (Bayer CropScience AG, priority 2002, dated 2008)

System: tobacco budworm (Heliothis virescens [Fabricius])
Experiment: surface-treated diet test against tobacco budworm
Assay type: in vivo
Conditions: 0.25 millimoles of candidate insecticide on the surface of the diet, second instar larvae, five-day exposure; for Percent Mortality: compared to the total number of insects infested; for Percent Growth Inhibition: inhibition of insect weight relative to untreated controls
Description: Candidate insecticides were evaluated for activity against the tobacco budworm (Heliothis virescens [Fabricius]) in a surface-treated diet test.
In this test one mL of molten (65-70° C.) wheat germ-based artificial diet was pipetted into each well of a four by six (24 well) multi-well plate (ID# 430345-15.5 mm dia.×17.6 mm deep; Corning Costar Corp., One Alewife Center, Cambridge, Mass. 02140). The diet was allowed to cool to ambient temperature before treatment with candidate insecticide.
For a determination of insecticidal activity, solutions of the candidate insecticides were prepared for testing using a Packard 204DT Multiprobe® Robotic System (Packard Instrument Company, 800 Research Parkway, Meriden, Conn. 06450), in which the robot first diluted a standard 50 millimolar DMSO solution of candidate insecticide with a 1:1 water/acetone solution (V/V) in a ratio of 1:7 stock solution to water/acetone. The robot subsequently pipetted 40 microliters of the so-prepared solution onto the surface of the diet in each of three wells in the 24 multi-well plate. The process was repeated with solutions of seven other candidate insecticides. Once treated, the contents of the multi-well plate were allowed to dry, leaving 0.25 millimoles of candidate insecticide on the surface of the diet, or a concentration of 0.25 millimolar. Appropriate untreated controls containing only DMSO on the diet surface were also included in this test.
For evaluations of the insecticidal activity of a candidate insecticide at varying rates of application, the test was established as described above using sub-multiples of the standard 50 millimolar DMSO solution of candidate insecticide. For example, the standard 50 millimolar solution was diluted by the robot with DMSO to give 5, 0.5, 0.05, 0.005, 0.0005 millimolar, or more dilute solutions of the candidate insecticide. In these evaluations there were six replicates of each rate of application placed on the surface of the diet in the 24 multi-well plate, for a total of four rates of application of candidate insecticide in each plate.
In each well of the test plate was placed one second instar tobacco budworm larvea, each weighing approximately five milligrams. After the larvae were placed in each well, the plate was sealed with clear polyfilm adhesive tape. The tape over each well was perforated to ensure an adequate air supply. The plates were then held in a growth chamber at 25° C. and 60% relative humidity for five days (light 14 hours/day).
After the five-day exposure period insecticidal activity for each rate of application of candidate insecticide was assessed as percent inhibition of insect weight relative to the weight of insects from untreated controls, and percent mortality when compared to the total number of insects infested.
The test compounds of formula I are identified by numbers that correspond to those in Table 1.

COc1ccc(C(=O)NN=C(c2ccc(OC(F)(F)F)cc2)C2CCN(Cc3ccc(-c4nnn(C)n4)cc3)CC2)cc1 [Compound 146]
Percent Mortality: 100%
Percent Growth Inhibition: 100%

O=C(c1ccc(OC(F)(F)F)cc1)C1CCN(Cc2ccc(-c3ccccn3)cc2)CC1 [Compound 62]
Percent Mortality: 100%
Percent Growth Inhibition: 95%

Cn1nnc(-c2ccc(CN3CCC(C(=NNC(=O)c4ccccc4Cl)c4ccc(OC(F)(F)F)cc4)CC3)cc2)n1 [Compound 136]
Percent Mortality: 76%
Percent Growth Inhibition: 0%

CCn1nnc(-c2ccc(CN3CCC(C(=NNS(=O)(=O)c4ccc(C(F)(F)F)cc4)c4ccc(OC(F)(F)F)cc4)CC3)cc2)n1 [Compound 129]
Percent Mortality: 100%
Percent Growth Inhibition: 95%

CCn1nnc(-c2ccc(CN3CCC(C(=NNc4ccc([N+](=O)[O-])cc4)c4ccc(OC(F)(F)F)cc4)CC3)cc2)n1 [Compound 126]
Percent Mortality: 100%
Percent Growth Inhibition: 100%

CCn1nnc(-c2ccc(CN3CCC(C(=NNS(=O)(=O)c4ccc(OC(F)(F)F)cc4)c4ccc(OC(F)(F)F)cc4)CC3)cc2)n1 [Compound 130]
Percent Mortality: 100%
Percent Growth Inhibition: 100%

CCn1nnc(-c2ccc(CN3CCC(C(=NNC(=O)c4ccc(C(F)(F)F)cc4)c4ccc(OC(F)(F)F)cc4)CC3)cc2)n1 [Compound 147]
Percent Mortality: 100%
Percent Growth Inhibition: 92%

CCn1nnc(-c2ccc(C[N+]3([O-])CCN(C(c4ccc(C(F)(F)F)cc4)c4ccc(C(F)(F)F)cc4)CC3)cc2)n1 [Compound 175]
Percent Mortality: 100%
Percent Growth Inhibition: 100%

FC(F)(F)c1ccc(C(c2ccc(Cl)cc2)N2CCN(Cc3ccc(Oc4ncccn4)cc3)CC2)cc1 (stereo not shown) [Compound 168]
Percent Mortality: 100%
Percent Growth Inhibition: 100%

Clc1ccc(C(c2ccc(Cl)cc2)N2CCN(Cc3ccc(Oc4ncccn4)cc3)CC2)cc1 [Compound 167]
Percent Mortality: 100%
Percent Growth Inhibition: 100%

CCn1nnc(-c2ccc(CN3CCC(C(=NNc4ccc(C)cc4)c4ccc(OC(F)(F)F)cc4)CC3)cc2)n1 [Compound 113]
Percent Mortality: 100%
Percent Growth Inhibition: 100%

CCn1nnc(-c2ccc(CN3CCC(C(=NNc4ccc(OC)cc4)c4ccc(OC(F)(F)F)cc4)CC3)cc2)n1 [Compound 116]
Percent Mortality: 100%
Percent Growth Inhibition: 100%

Cn1nnc(-c2ccc(CN3CCC(C(=NNC(=O)c4ccc(F)cc4)c4ccc(OC(F)(F)F)cc4)CC3)cc2)n1 [Compound 143]
Percent Mortality: 17%
Percent Growth Inhibition: 87%

O=C(c1ccc(C(F)(F)F)cc1)C1CCNCC1 [Compound 3, 4-piperidyl 4-(trfluoromethyl)phenyl ketone]
Percent Mortality: 100%
Percent Growth Inhibition: 100%
